From patent US20090124656A1, “Heterocyclic Oxime Compounds a Process for Their Preparation and Pharmaceutical Compositions Containing Them” (LES LABORATOIRES SERVIER, priority 2005, published 2009) come the findings set out here.

The assay relates to ob/ob mouse. Kind of assay: Antidiabetic and hypolipaemic effect in the ob/ob mouse. The settings on record: dose of 3 mg/kg for 4 days. The format is in vivo. From the text: Mutations in laboratory animals and also different sensitivities to dietary regimens have allowed the development of animal models having non-insulin-dependent diabetes and hyperlipidaemia associated with obesity and with resistance to insulin.
Genetic mice models (ob/ob) (Diabetes, 1982, 31 (1), 1-6) and Zucker (fa/fa) rats have been developed by various laboratories in order to understand the physiopathology of those diseases and test the effectiveness of new antidiabetic compounds (Diabetes, 1983, 32, 830-838).
Antidiabetic and Hypolipaemic Effect in the ob/ob Mouse
The 10-week-old female ob/ob mouse (Harlan) is used for the in vivo tests. The animals are kept in a light-darkness cycle of 12 hours at 25° C. The mouse has a basal hyperglycaemia of 2 g/l. The animals are randomly selected with regard to their glycaemia to form groups of six. […] […] The control groups receive the solvents under the same conditions as the treated groups.
The activity of the products is evaluated by measuring glycaemia 24 hours after the final administration and by measuring body weight daily.

On to `CCOC(Cc1ccc(OCCN2CCC(C)(C)c3cc(C(=O)C4CCCCC4)ccc32)cc1)C(=O)O` (stereo not drawn) [3-{4-[2-(6-(Cyclohexylcarbonyl)-4,4-dimethyl-3,4-dihydro-1(2H)-quinolinyl)ethoxy]phenyl}-2-ethoxypropanoic acid], for which the reduction in glycaemia is 32%, the reduction in insulinaemia turned out to be 56% and the reduction in triglyceridaemia is recorded as 57%.
